Data: US20250101039A1, “RIFAMYCIN DERIVATIVES FOR THE TREATMENT OF DISEASES” (priority 2022, published 2025)
Values after ≈ are worked out from the molar mass of the structure shown.

Assays:
S. aureus = test: MIC by broth microdilution, S. aureus; type: cell-based, Staphylococcus aureus; conditions: for MIC S. aureus: cation adjusted Mueller Hinton broth, 35° C. 20 hours
A. baumannii = test: MIC by broth microdilution, A. baumannii (WT); type: cell-based, Acinetobacter baumannii; conditions: for MIC A. baumannii: RPMI medium supplemented with 10% FCS, 35° C. 20 hours; for A. baumannii MIC, WT: Table 4, RPMI + FCS
[1] = test system: Enterococcus faecium (strain NCTC 12204); test: MIC by broth microdilution, E. faecium; type: cell-based; conditions: strain NCTC 12204, cation adjusted Mueller Hinton broth
[2] = test system: Enterococcus faecalis (strain ATCC 51575); test: MIC by broth microdilution, E. faecalis; type: cell-based; conditions: strain ATCC 51575, cation adjusted Mueller Hinton broth
[3] = test system: Staphylococcus epidermidis (strain ATCC 12228); test: MIC by broth microdilution, S. epidermidis; type: cell-based; conditions: strain ATCC 12228, cation adjusted Mueller Hinton broth
[4] = test system: S. pneumoniae (strain ATCC 49619); test: MIC by broth microdilution, S. pneumoniae; type: cell-based, Streptococcus pneumoniae; conditions: strain ATCC 49619, cation adjusted Mueller Hinton broth + 5% laked horse blood
[5] = test system: S. pyogenes (strain IHMA 1117021); test: MIC by broth microdilution, S. pyogenes; type: cell-based, Streptococcus pyogenes; conditions: strain IHMA 1117021, cation adjusted Mueller Hinton broth + 5% laked horse blood
[6] = test system: H. influenzae (strain ATCC 49247); test: MIC by broth microdilution, H. influenzae; type: cell-based, Hemophilus influenzae; conditions: strain ATCC 49247, Hemophilus test medium broth
[7] = test system: M. abscessus (strain ATCC 19977); test: MIC by broth microdilution, M. abscessus; type: cell-based, Mycobacterium abscessus; conditions: strain ATCC 19977, Middlebrook 7H9 broth + ADC
[8] = test system: M. tuberculosis (H37Rv strain ATCC 27294); type: cell-based, Mycobacterium tuberculosis
[9] = test system: M. smegmatis (strain ATCC 700084); test: MIC, M. smegmatis (BacTiter-Glo); type: cell-based, Mycobacterium smegmatis; conditions: strain ATCC 700084, Middlebrook 7H9 + ADC, 90% growth inhibition, 20 hours
A. baumannii RpoB H535Q = test: microbe, parasite or virus in culture; type: cell-based, Acinetobacter baumannii; conditions: Table 4, RPMI + FCS
A. baumannii RpoB H535C = test: microbe, parasite or virus in culture; type: cell-based, Acinetobacter baumannii; conditions: Table 4, RPMI + FCS
A. baumannii RpoB H535L = test: microbe, parasite or virus in culture; type: cell-based, Acinetobacter baumannii; conditions: Table 4, RPMI + FCS

In the case of `COC1C=COC2(C)Oc3c(C)c(O)c4c(c3C2=O)C2=NC3(NC2=C(NC(=O)C(C)=CC=CC(C)C(O)C(C)C(O)C(C)C(OC(C)=O)C1C)C4=O)C1CCC3CN(C(C)(C)C)C1` (mixture of isomers) [2 (A + B)], the MIC S. aureus (S. aureus) is reported as 0.008 mg/L and the MIC A. baumannii (A. baumannii) is reported as 2 mg/L.
`COC1C=COC2(C)Oc3c(C)c(O)c4c(c3C2=O)C2=NC3(NC2=C(NC(=O)C(C)=CC=CC(C)C(O)C(C)C(O)C(C)C(OC(C)=O)C1C)C4=O)C1CCC3CN(C)C1` (mixture of isomers) [1 (A + B)] was tested, and the MIC S. aureus (S. aureus) was 0.016 mg/L and the MIC A. baumannii (A. baumannii) was 0.25 mg/L.
With `CO[C@H]1/C=C/O[C@@]2(C)Oc3c(C)c(O)c4c(c3C2=O)C2=NC3(NC2=C(NC(=O)/C(C)=C\C=C\[C@H](C)[C@H](O)[C@@H](C)[C@@H](O)[C@@H](C)[C@H](OC(C)=O)[C@@H]1C)C4=O)C1CN(C)CC3CN(C)C1` (stereo partly shown) [Compound 18] the MIC S. aureus (S. aureus) was 0.016 mg/L (≈ 0.0186 µM), the MIC A. baumannii (A. baumannii) was 0.008 mg/L (≈ 0.0093 µM) and the “A. baumannii MIC, WT” value (A. baumannii) was 0.008 mg/L. The MIC E. faecium [1] was 0.125 mg/L (≈ 0.145 µM), the MIC E. faecalis [2] was 2 mg/L (≈ 2.33 µM) and the MIC S. epidermidis [3] was less than 0.002 mg/L. For the same compound, the MIC S. pneumoniae [4] was less than 0.002 mg/L, the MIC S. pyogenes [5] was less than 0.002 mg/L and the MIC H. influenzae [6] was 0.125 mg/L (≈ 0.145 µM). The MIC M. abscessus [7] was 32 mg/L, the MIC M. tuberculosis [8] was 0.01 mg/L (≈ 0.0116 µM) and the MIC M. smegmatis [9] was 1.11 mg/L. The “A. baumannii MIC, RpoB H535Q” value (A. baumannii RpoB H535Q) was 0.03 mg/L, the “A. baumannii MIC, RpoB H535C” value (A. baumannii RpoB H535C) was 0.25 mg/L and the “A. baumannii MIC, RpoB H535L” value (A. baumannii RpoB H535L) was 4 mg/L.
Work on `CCCN1C2CCC1CC1(C2)N=C2C(=C3NC(=O)/C(C)=C\C=C\[C@H](C)[C@H](O)[C@@H](C)[C@@H](O)[C@@H](C)[C@H](OC(C)=O)[C@H](C)[C@@H](OC)/C=C/O[C@@]4(C)Oc5c(C)c(O)c(c2c5C4=O)C3=O)N1` (single isomer, unassigned) [Compound 20A] yielded an MIC S. aureus (S. aureus) of 0.008 mg/L (≈ 0.00931 µM) and an MIC A. baumannii (A. baumannii) of 0.25 mg/L (≈ 0.291 µM).
Compound `COC1C=COC2(C)Oc3c(C)c(O)c4c(c3C2=O)C2=NC3(NC2=C(NC(=O)C(C)=CC=CC(C)C(O)C(C)C(O)C(C)C(OC(C)=O)C1C)C4=O)C1CC3CN(C)C1` (mixture of isomers) [5 (A + B)] has an MIC S. aureus (S. aureus) of 0.125 mg/L and an MIC A. baumannii (A. baumannii) of 8 mg/L.
With `CO[C@H]1/C=C/O[C@@]2(C)Oc3c(C)c(O)c4c(c3C2=O)C2=NC3(CCCNCC3)NC2=C(NC(=O)/C(C)=C\C=C\[C@H](C)[C@H](O)[C@@H](C)[C@@H](O)[C@@H](C)[C@H](OC(C)=O)[C@@H]1C)C4=O` (single isomer, unassigned) [Compound 6B] the “MIC S. aureus” value (S. aureus) was 16 mg/L (≈ 19.9 µM) and the “MIC A. baumannii” value (A. baumannii) was 125 mg/L (≈ 155 µM).
`CO[C@H]1/C=C/O[C@@]2(C)Oc3c(C)c(O)c4c(c3C2=O)C2=NC3(NC2=C(NC(=O)/C(C)=C\C=C\[C@H](C)[C@H](O)[C@@H](C)[C@@H](O)[C@@H](C)[C@H](OC(C)=O)[C@@H]1C)C4=O)C1CNCC3CNC1` (stereo partly shown) [Compound 17] was tested, and the MIC S. aureus (S. aureus) was 0.008 mg/L (≈ 0.00962 µM) and the MIC A. baumannii (A. baumannii) was 0.5 mg/L (≈ 0.601 µM).
For `COC1C=COC2(C)Oc3c(C)c(O)c4c(c3C2=O)C2=NC3(CCC5CCC(C3)N5C)NC2=C(NC(=O)C(C)=CC=CC(C)C(O)C(C)C(O)C(C)C(OC(C)=O)C1C)C4=O` (mixture of isomers) [8 (A + B + C + D)], the MIC S. aureus (S. aureus) was 0.03 mg/L, the MIC A. baumannii (A. baumannii) was 0.008 mg/L and the “A. baumannii MIC, WT” value (A. baumannii) was 0.008 mg/L. The MIC E. faecium [1] was 0.125 mg/L, the MIC E. faecalis [2] was 2 mg/L and the MIC S. epidermidis [3] was less than 0.002 mg/L. The MIC S. pneumoniae [4] was less than 0.002 mg/L, the MIC S. pyogenes [5] was 0.016 mg/L and the MIC H. influenzae [6] was 0.125 mg/L. For the same compound, the MIC M. abscessus [7] was 32 mg/L, the MIC M. tuberculosis [8] was 0.01 mg/L and the MIC M. smegmatis [9] was 1.19 mg/L. The “A. baumannii MIC, RpoB H535Q” value (A. baumannii RpoB H535Q) was 0.06 mg/L, the “A. baumannii MIC, RpoB H535C” value (A. baumannii RpoB H535C) was 0.125 mg/L and the “A. baumannii MIC, RpoB H535L” value (A. baumannii RpoB H535L) was 1 mg/L.
In the case of `CO[C@H]1/C=C/O[C@@]2(C)Oc3c(C)c(O)c4c(c3C2=O)C2=NC3(CC5CCC(C3)N5C)NC2=C(NC(=O)/C(C)=C\C=C\[C@H](C)[C@H](O)[C@@H](C)[C@@H](O)[C@@H](C)[C@H](OC(C)=O)[C@@H]1C)C4=O` (single isomer, unassigned) [Compound 13A], the MIC (S. aureus; Staphylococcus aureus, 20 h, read-out: MIC S. aureus, cation adjusted Mueller Hinton broth, 35° C. 20 hours) is reported as 0.03 mg/L (≈ 0.0361 µM) and the MIC A. baumannii (A. baumannii) is reported as 0.03 mg/L (≈ 0.0361 µM).
For `CO[C@H]1/C=C/O[C@@]2(C)Oc3c(C)c(O)c4c(c3C2=O)C2=NC3(CC5CCC(C3)N5C(C)C)NC2=C(NC(=O)/C(C)=C\C=C\[C@H](C)[C@H](O)[C@@H](C)[C@@H](O)[C@@H](C)[C@H](OC(C)=O)[C@@H]1C)C4=O` (single isomer, unassigned) [Compound 14A], the MIC S. aureus (S. aureus) was 0.016 mg/L (≈ 0.0186 µM) and the MIC A. baumannii (A. baumannii) was 0.25 mg/L (≈ 0.291 µM).
